The values below come from patent US20090170830A1, “Tricyclic Beta-Secretase Inhibitors for the Treatment of Alzheimer's Disease” (priority 2005, published 2009).

Each structure is given as a SMILES string.

The test deals with T1, beta-secretase enzyme (BACE 1), soluble human protein (Homo sapiens, UniProt P56817).
T1 construct: soluble (transmembrane domain and cytoplasmic extension excluded) human protein; made in house
In words: ECL assay: homogeneous end point electrochemiluminescence assay with biotinylated BACE substrate. Type of test: biochemical. Particulars: pH 4.5, rt, 30 min, 10% DMSO, range bounds printed in mixed units (lower nM, upper μM). Here is the method: Enzyme inhibition may be determined as follows.
ECL Assay: A homogeneous end point electrochemiluminescence (ECL) assay is employed using a biotinylated BACE substrate. The Km of the substrate is greater than 100 μM and can not be determined due to the limit of solubility of the substrate. A typical reaction contains approximately 0.1 nM enzyme, 0.25 μM of the substrate, and buffer (50 mM NaOAc, pH 4.5, 0.1 mg/ml BSA, 0.2% CHAPS, 15 mM EDTA and 1 mM deferoxamine) in a total reaction volume of 100 μl. The reaction proceeds for 30 min and is then stopped by the addition of 25 μL of 1 M Tris-HCl, pH 8.0. The resulting enzymatic product is assayed by adding a ruthenylated antibody which specifically recognizes the C-terminal residue of the product. Streptavidin coated magnetic beads are added into the solution and the samples are subjected to M-384 (Igen Inc., Gaithersburg, Md.) analysis. Under these conditions, less than 10% of substrate is processed by BACE 1. The enzyme used in these studies is soluble (transmembrane domain and cytoplasmic extension excluded) human protein produced in a baculovirus expression system. To measure the inhibitory potency for compounds, 12 concentrations of inhibitors are prepared starting from 100 μM with three fold series dilution. Solutions of the inhibitor in DMSO are included in the reaction mixture (final DMSO concentration is 10%). […]

T1 sequence (P56817 46-457 limits assumed): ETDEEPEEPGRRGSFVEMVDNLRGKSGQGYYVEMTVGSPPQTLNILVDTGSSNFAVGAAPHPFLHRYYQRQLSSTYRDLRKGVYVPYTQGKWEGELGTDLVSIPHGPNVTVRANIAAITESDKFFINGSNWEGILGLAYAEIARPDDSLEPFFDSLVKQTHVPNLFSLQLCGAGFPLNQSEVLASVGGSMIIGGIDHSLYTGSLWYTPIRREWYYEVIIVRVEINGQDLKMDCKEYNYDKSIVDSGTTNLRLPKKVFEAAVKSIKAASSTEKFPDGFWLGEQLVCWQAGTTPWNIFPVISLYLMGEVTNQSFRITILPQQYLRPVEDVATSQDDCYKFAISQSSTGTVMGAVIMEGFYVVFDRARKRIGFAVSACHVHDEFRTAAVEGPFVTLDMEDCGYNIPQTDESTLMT

On to `CCc1cn2c3c(cc(-c4nnc([C@](C)(N)Cc5ccccc5)o4)cc13)N(C)S(=O)(=O)CC2` [Example 1, (2R)-2-[5-(7-ethyl-1-methyl-2,2-dioxido-3,4-dihydro-1H-[1,2,5]thiadiazepino[3,4,5-hi]indol-9-yl)-1,3,4-oxadiazol-2-yl]-1-phenylpropan-2-amine], for which the “IC50 in inhibiting the beta-secretase enzyme” value is 1 nM and 100000 nM.
